Results published in US8658604B2, “Template-fixed beta-hairpin peptidomimetics with protease inhibitory activity” (Polyphor Ltd, priority 2005, dated 2014).
pIC50: −log10 of the molar value. Where a SMILES comes first, the peptide text is derived from it.

Biological target: T1, CathepsinG, from human neutrophils (Homo sapiens, UniProt P08311)
T1 sequence (P08311 21-244): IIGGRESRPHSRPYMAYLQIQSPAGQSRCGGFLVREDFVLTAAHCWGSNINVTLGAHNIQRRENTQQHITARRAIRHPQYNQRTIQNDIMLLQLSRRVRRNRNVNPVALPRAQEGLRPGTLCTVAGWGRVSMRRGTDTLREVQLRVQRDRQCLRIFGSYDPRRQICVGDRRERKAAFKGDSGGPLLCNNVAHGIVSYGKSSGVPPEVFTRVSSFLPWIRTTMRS
Assay: Enzymatic assay, cathepsin G
Settings: Cathepsin G IC50

SMILES	pIC50
CC[C@H](C)[C@@H]1NC(=O)[C@@H]2CCCN2C(=O)[C@@H]2CCCN2C(=O)[C@H](CC(=O)O)NC(=O)[C@H](CO)NC(=O)[C@H](CCCCN)NC(=O)[C@H]([C@@H](C)O)NC(=O)[C@@H]2CSSC[C@H](NC1=O)C(=O)N[C@@H](CC(N)=O)C(=O)N1CCC[C@@H]1C(=O)N1CCC[C@H]1C(=O)N[C@@H](Cc1ccccc1Cl)C(=O)N2 [Ex. 45] (HELM PEPTIDE1{[O=C([C@H](Cc1ccccc1Cl)N[*:1])[*:2]].C.T.K.S.D.P.P.I.C.N.[dP].P}$PEPTIDE1,PEPTIDE1,2:R3-10:R3|PEPTIDE1,PEPTIDE1,1:R1-13:R2$$$V2.0)	7.33
CC[C@H](C)[C@@H]1NC(=O)[C@@H]2CCCN2C(=O)[C@@H]2CCCN2C(=O)[C@H](CC(=O)O)NC(=O)[C@H](CO)NC(=O)[C@H](CCCCN)NC(=O)[C@H]([C@@H](C)O)NC(=O)[C@@H]2CSSC[C@H](NC1=O)C(=O)N[C@@H](Cc1ccc(O)cc1)C(=O)N1CCC[C@@H]1C(=O)N1CCC[C@H]1C(=O)N[C@@H](Cc1ccc(N)cc1)C(=O)N2 [Ex. 32] (HELM PEPTIDE1{[Nc1ccc(C[C@H](N[*:1])C(=O)[*:2])cc1].C.T.K.S.D.P.P.I.C.Y.[dP].P}$PEPTIDE1,PEPTIDE1,2:R3-10:R3|PEPTIDE1,PEPTIDE1,1:R1-13:R2$$$V2.0)	7.28
CCCC[C@@H]1NC(=O)[C@@H]2CCCN2C(=O)[C@H]2CCCN2C(=O)[C@H](CC(N)=O)NC(=O)[C@@H]2CSSC[C@H](NC1=O)C(=O)N[C@@H]([C@@H](C)O)C(=O)N[C@@H](CCCCN)C(=O)N[C@@H](CO)C(=O)N[C@@H](CC(=O)O)C(=O)N1CCC[C@H]1C(=O)N1CCC[C@H]1C(=O)N[C@@H]([C@@H](C)CC)C(=O)N2 [Ex. 41] (HELM PEPTIDE1{[Nle].C.T.K.S.D.P.P.I.C.N.[dP].P}$PEPTIDE1,PEPTIDE1,2:R3-10:R3|PEPTIDE1,PEPTIDE1,1:R1-13:R2$$$V2.0)	7.31
CC[C@H](C)[C@@H]1NC(=O)[C@@H]2CCCN2C(=O)[C@@H]2CCCN2C(=O)[C@H](CC(=O)O)NC(=O)[C@H](CO)NC(=O)[C@H](CCCCN)NC(=O)[C@H]([C@@H](C)O)NC(=O)[C@@H]2CSSC[C@H](NC1=O)C(=O)N[C@@H]([C@@H](C)O)C(=O)N1CCC[C@@H]1C(=O)N1CCC[C@H]1C(=O)N[C@@H](CC1CCCCC1)C(=O)N2 [Ex. 34] (HELM PEPTIDE1{[Cha].C.T.K.S.D.P.P.I.C.T.[dP].P}$PEPTIDE1,PEPTIDE1,2:R3-10:R3|PEPTIDE1,PEPTIDE1,1:R1-13:R2$$$V2.0)	7.25
C[C@@H](O)[C@@H]1NC(=O)[C@@H]2CSSC[C@H](NC(=O)[C@H](CC3CCCCC3)NC(=O)[C@@H]3CCCN3C(=O)[C@@H]3CCCN3C(=O)[C@H](CC(=O)O)NC(=O)[C@H](CO)NC(=O)[C@H](CCCCN)NC1=O)C(=O)N[C@@H](CCCNC(=N)N)C(=O)N1CCC[C@@H]1C(=O)N1CCC[C@H]1C(=O)N[C@@H](C1CCCCC1)C(=O)N2 [Ex. 71] (HELM PEPTIDE1{[O=C([C@@H](N[*:1])C1CCCCC1)[*:2]].C.T.K.S.D.P.P.[Cha].C.R.[dP].P}$PEPTIDE1,PEPTIDE1,2:R3-10:R3|PEPTIDE1,PEPTIDE1,1:R1-13:R2$$$V2.0)	7.15
CC[C@H](C)[C@@H]1NC(=O)[C@@H]2CCCN2C(=O)[C@@H]2CCCN2C(=O)[C@H](CC(=O)O)NC(=O)[C@H](CO)NC(=O)[C@H](CCCCN)NC(=O)[C@H]([C@@H](C)O)NC(=O)[C@@H]2CSSC[C@H](NC1=O)C(=O)N[C@@H](CO)C(=O)N1CCC[C@@H]1C(=O)N1CCC[C@H]1C(=O)N[C@@H](Cc1c[nH]c3ccccc13)C(=O)N2 [Ex. 61] (HELM PEPTIDE1{W.C.T.K.S.D.P.P.I.C.S.[dP].P}$PEPTIDE1,PEPTIDE1,2:R3-10:R3|PEPTIDE1,PEPTIDE1,1:R1-13:R2$$$V2.0)	7.14
